Source: patent US5302590A, “Compounds useful as dual antagonists of platelet activating factor and leukotriene D4” (Hoffmann-La Roche Inc., priority 1992, dated 1994)
Like-named read-outs stand apart in the source and are kept apart here.

Key:
[1] = system: platelet activating factor (PAF); assay: PAF Induced Bronchoconstriction Assay; type: in vivo, guinea pig; settings: for ED50: Cavia porcellus, Platelet, read-out: PAF-induced bronchoconstriction ID50; for antagonist activity against bronchoconstriction induced by PAF or LTD4: administered IV, statement covers both PAF and LTD4; for PAF-induced bronchoconstriction, percent inhibition: 10 mg/kg
Experimental: (§1) The relative potency (ID50 values) of test compounds administered by the intravenous and oral route was determined by administering increasing doses of test compound. For determination of the time course of inhibition for various compounds, the time between administration of compound and challenge with LTD was varied. The time course of activity was calculated as the time when inhibition decreased to 40%.
Male animals (Hartlet Strain, 400-500 g were anesthetized with urethane (2 g/kg, i.p.). Each animals' trachea was cannulated and the guinea pigs were respirated using a Harvard small animal rodent respirator (3.0 cc stroke volume, 40 breaths per min.). Tracheal pressure was recorded from a cannula inserted in the trachea and connected to a Statham pressure transducer.
The jugular vein was cannulated for administering compounds. Spontaneous breathing was arrested with succinylcholine (1.2 mg/kg, i.v.) administered 2 minutes prior to intravenous injection of platelet activating factor PAF).
For the intravenous testing, the guinea pig is given a 1-minute pretreatment with propranolol at a dose of 0.1 mg/kg intravenously. The test compound is administered with a 1 minute pretreatment prior to intravenous challenge with PAF. The animal is then challenged with a 1 μg/kg intravenous dose of PAF and the change in tracheal pressure is measured.
For the oral testing, the procedure includes a 2-hour pretreatment period with the test compound administered through an oral gavage tube. Propranolol or succinylcholine and PAF are administered intravenously, and the change in tracheal pressure measured.
The change in tracheal pressure is determined by subtracting the steady state baseline achieved after administration of succinylcholine from the peak bronchoconstriction seen after challenge with PAF. The mean is calculated for each test compound and compared to the mean of the control animals to give the percent inhibition of bronchoconstriction. The standard error is calculated as the standard error of the mean.
(§2) The compounds listed below were evaluated for antagonist activity against bronchoconstriction induced by PAF or LTD4. Comparative data for a known LTD4 antagonist (Compound B) and a known PAF antagonist (Compound A) are also shown.
(§3) Compounds C, D and E were administered orally at a dose of 10 mg/kg.

leukotriene D4 (LTD4) = assay: Leukotriene-induced bronchoconstriction in guinea pigs, in vivo leukotriene D4 (LTD) antagonist test; set-up: species or system guinea pig (Hartley strain); settings: for ED50: Cavia porcellus, read-out: LTD4-induced bronchoconstriction ID50
Experimental: Male guinea pigs (Hartley strain Charles River) weighing 300-500 g were anesthetized with urethane (~2 g/kg) intraperitoneally and a polyethylene cannula was inserted into the jugular vein for intravenous drug administration. Tracheal pressure (cm of H2 O) was recorded from a Statham pressure transducer (P 32 AA). Propranolol was administered 5 minutes prior to challenge with LTD. Two minutes later spontaneous breathing was arrested with succinylcholine chloride (1.2 mg/kg) administered intravenously, and the animals were ventilated with a Harvard (Model #680) small animal respirator set at 40 breaths/min and 4.0 cc stroke volume. Control vehicle or test drug was administered through the cannula into the jugular vein 1 minute before the animals were challenged intravenously with a maximum constrictory dose of LTD (25 μg/kg) given intravenously. The change in tracheal pressure was averaged for control and drug-treated animals and percent inhibition was calculated. For determination of oral activity, animals were dosed with test compound or vehicle two hours prior to challenge with LTD (25 μg/kg, i.v.).
as §1, §2, §3

[2] = 1 min, iv, 1 minute pretreatment, PAF 1 μg/kg i.v.
[3] = 1 min, iv, 1 minute before LTD 25 μg/kg i.v.
[4] = po, 10 mg/kg, two hours prior to LTD 25 μg/kg i.v.

SMILES	ED50 [1, 2]	ED50 ([1]; po, 2-hour pretreatment)	LTD4-induced bronchoconstriction ID50 (leukotriene D4 (LTD4); iv, 1 minute before LTD 25 μg/kg i.v.)	LTD4-induced bronchoconstriction ID50 (leukotriene D4 (LTD4); po, two hours prior to LTD 25 μg/kg i.v.)	PAF-induced bronchoconstriction ID50 ([1]; iv, 1 minute pretreatment, PAF 1 μg/kg i.v.)	PAF-induced bronchoconstriction ID50 ([1]; po, 2-hour pretreatment)	ED50 (leukotriene D4 (LTD4); [3])	ED50 (leukotriene D4 (LTD4); 2 h, po, two hours prior to LTD 25 μg/kg i.v.)	antagonist activity against bronchoconstriction induced by PAF or LTD4 [1]	PAF-induced bronchoconstriction, percent inhibition ([1]; po, 2-hour pretreatment)	LTD4-induced bronchoconstriction, percent inhibition (leukotriene D4 (LTD4); [4])	LTD4-induced bronchoconstriction, percent inhibition (leukotriene D4 (LTD4); iv column, iv dose not given)
Cc1nnc2n1-c1sc(C#CCn3c(=O)c4ccccc4c4ccccc43)cc1C(c1ccccc1Cl)=NC2 [Compound A, 5-{3-[4-(2-Chlorophenyl)-9-methyl-6H-thieno[3,2f][1,2,4]triazolo[4,3-a][1,4]diazepin-2-yl]-2-propynyl}phenanthridin-6(5H)-one, reference compound]	0.02 mg/kg	0.12 mg/kg	Not Active	Not Active	–	–	–	–	–	–	–	–
CCC(CC)(CC(=O)Nc1cccc(/C=C/c2nc(C3CCC3)cs2)c1)C(=O)O [Compound B, (E)-4-[3-[2-(4-Cyclobutyl-2-thiazolyl)ethenyl]phenylamino]2,2-diethyl-4-oxobutanoic acid, reference compound]	–	–	–	–	Not Active	Not Active	0.13 mg/kg	0.12 mg/kg	–	–	–	–
Cc1nnc2n1-c1sc(CCc3ccc(CC(=O)Nc4cccc(/C=C/c5nc(C6CCC6)cs5)c4)c(C(=O)O)c3)cc1C(c1ccccc1Cl)=NC2.O [Compound C, (E)-5-[2-[4-(2-chlorophenyl)-9-methyl-6H-thieno-[3,2-f][1,2,4]triazolo[4,3-a][1,4]diazepin-2-yl]ethyl]-2-[2-[3-[2-(4-cyclobutyl-2-thiazolyl)ethenyl]phenylamino]-2-oxoethyl]-benzoic acid monohydrate]	0.02 mg/kg	–	–	–	–	–	0.01 mg/kg	–	very potent dual acting antagonists	37 ± 1%	48 ± 8%	–
C=CCNC(=O)c1cc(CCc2cc3c(s2)-n2c(C)nnc2CN=C3c2ccccc2Cl)ccc1CC(=O)Nc1cccc(/C=C/c2nc(C3CCC3)cs2)c1 [Compound D, (E)-4-[2-[4-(2-Chlorophenyl)-9-methyl-6H-thieno-[3,2-f][1,2,4]triazolo[4,3-a][1,4]diazepin-2-yl]ethyl]-N-[3-[2-(4-cyclobutyl-2-thiazolyl)ethenyl]phenyl]-2-[(2-propenylamino)-carbonyl]benzeneacetamide]	0.02 mg/kg	–	–	–	–	–	0.08 mg/kg	–	very potent dual acting antagonists	65 ± 1%	44 ± 15%	–
CCOC(=O)c1cc(CCc2cc3c(s2)-n2c(C)nnc2CN=C3c2ccccc2Cl)ccc1CC(=O)Nc1cccc(/C=C/c2nc(C3CCC3)cs2)c1 [Compound E, (E)-5-[2-[4-(2-Chlorophenyl)-9-methyl-6H-thieno-[3,2-f][1,2,4]triazolo[4,3-a][1,4]diazepin-2-yl]ethyl]-2-[2-[3-[2-(4-cyclobutyl-2-thiazolyl)ethenyl]phenylamino]-2-oxoethyl]-benzoic acid ethyl ester]	0.02 mg/kg	–	–	–	–	–	–	–	–	14 ± 9%	–	46 ± 7%
